In patent US20260285853A1, “COMPOUNDS AND METHODS FOR MODULATING SPLICING” (REMIX THERAPEUTICS INC., priority 2023, published 2026) one finds GI50, IC50 and AC50 data, which are given here for 16 compounds.

What all share (type): cell-based
Experiment [1] deals with SH-SY5Y (human neuroblastoma) cells. In words: Cell viability, Cell Titer Glo 2.0 assay. Particulars: read-out: Viability SHSY5Y.3 GI50. The method, boiled down: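 SH-SY5Y cells were exposed to serially diluted compounds in IMDM with 10% FBS and 0.1% DMSO for 72 hours at 37° C., 5% CO2. Viability was measured by CellTiter-Glo 2.0 luminescence, with medium-only wells as blank.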
(In general: In ATP-based viability assays light output follows the ATP content of the culture.)

Experiment [2] has as its system MYB mRNA. Nature of the experiment: Gene panel canonical junction qPCR assay, decrease in CJ mRNA, Table 3. Particulars: decrease in canonical junction (CJ) mRNA, gene panel qPCR, Table 3. The method, boiled down:
(§1)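 Canonical exon-junction (CJ) transcript measured by 5′ nuclease RT-qPCR, normalized to GAPDH, GUSB or PPIA and to DMSO control (2^(−ΔΔCt)). A673 or K562 cells treated 24 h at 37° C with an 11-point 3-fold dilution series, top 10 uM, DMSO ≤0.25%. IC50 from 4-parameter logistic fit of percentage CJ decrease.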

For experiment [3], the system named is HTT mRNA. The description is as above. To be noted: decrease in canonical junction (CJ) mRNA, gene panel qPCR, Table 3. The method, boiled down:
as §1

For experiment [4], the system named is MYB mRNA. Nature of the experiment: Splicing RT-qPCR assay (THP), Table 2A. Particulars: Table 2A (THP); for AC50: AJ mRNA increase, read-out: MYB AJ (increase in alternative junction mRNA, AC50); for IC50: CJ mRNA decrease, read-out: MYB CJ (decrease in canonical junction mRNA, IC50). A general note: Quantitative PCR measures a nucleic acid by following its amplification.

The test system of experiment [5] is HTT mRNA. Nature of the experiment: Splicing RT-qPCR assay (THP), Table 2A. To be noted: Table 2A (THP); for AC50: AJ mRNA increase, read-out: HTT AJ (increase in alternative junction mRNA, AC50); for IC50: CJ mRNA decrease, read-out: HTT CJ (decrease in canonical junction mRNA, IC50).

The GI50 is the concentration giving 50% growth inhibition. One may read the IC50 as the midpoint of a concentration-inhibition curve. One may read the AC50 as the concentration giving half of the maximal activity seen.

The structures appear in SMILES notation. Some results are limits rather than exact numbers.

On to `COc1cc2nn(C)cc2cc1NC(=O)c1cnc(N2CCC(NC3CC3)CC2)c2cn(C)nc12` [Compound 434, 4-[4-(cyclopropylamino)-1-piperidyl]-N-(6-methoxy-2-methyl-indazol-5-yl)-2-methyl-pyrazolo[4,3-c]pyridine-7-carboxamide], for which the GI50 in experiment [1] is 1 to 10 µM. Further, the IC50 in experiment [2] was less than 0.1 µM; in experiment [3], 0.1 to 1 µM; in experiment [4], less than 0.1 µM; in experiment [5] it was 0.1 to 1 µM. In addition, the values for the concentration at half-maximal activity (AC50) in experiment [4] and in experiment [5] were less than 0.1 µM and 0.1 to 1 µM, respectively.
In the case of `CNc1cc(N2CCC(NC3CC3)CC2)c2cn(C)nc2c1C(=O)Nc1cc2cn(C)nc2cc1OC` [Compound 435, 2,2,2-trifluoroacetate], in experiment [1], the concentration for 50% growth inhibition (GI50) lay within 1 to 10 µM. Also, the IC50 in experiment [2], in experiment [3], in experiment [4] and in experiment [5] was more than 10 µM in each case. Moreover, the AC50 in experiment [4] and in experiment [5] was more than 10 µM in each case.
With `COc1cc2nn(C)cc2cc1NC(=O)c1c(Cl)cc(N2CCC(NC3CC3)CC2)c2cn(C)nc12` [Compound 436, 6-chloro-4-[4-(cyclopropylamino)-1-piperidyl]-N-(6-methoxy-2-methyl-indazol-5-yl)-2-methyl-indazole-7-carboxamide], in experiment [1], the GI50 fell in the range of 1 to 10 µM. The IC50 was 0.1 to 1 µM in experiment [2], more than 10 µM in experiment [3], 0.1 to 1 µM in experiment [4] and more than 10 µM in experiment [5]. The AC50 was 0.1 to 1 µM in experiment [4] and more than 10 µM in experiment [5].
On to `COc1cc2nn(C)cc2cc1C#Cc1ccc(N2CCC(NC3CC3)CC2)c2cn(C)nc12` [Compound 437, N-cyclopropyl-1-[7-[2-(6-methoxy-2-methyl-indazol-5-yl)ethynyl]-2-methyl-indazol-4-yl]-piperidin-4-amine], for which, in experiment [1], the GI50 lay in the range of 1 to 10 µM. Also, the half-inhibitory concentration (IC50) in experiment [2], in experiment [3], in experiment [4] and in experiment [5] was more than 10 µM each time. Moreover, the half-maximal activity concentration (AC50) in experiment [4] and in experiment [5] was more than 10 µM throughout.
Turning to `Cn1cc2cc(NC(=O)c3c(F)cc(N4CCC(NC5CC5)CC4)c4cn(C)nc34)c(OC3CC3)cc2n1` [Compound 438, N-[6-(cyclopropoxy)-2-methyl-indazol-5-yl]-4-[4-(cyclopropylamino)-1-piperidyl]-6-fluoro-2-methyl-indazole-7-carboxamide], the GI50 in experiment [1] was more than 10 µM. The concentration for half-maximal inhibition (IC50) in experiment [2], in experiment [3], in experiment [4] and in experiment [5] was more than 10 µM each time. Besides, the concentration at half-maximal activity (AC50) in experiment [4] and in experiment [5] was more than 10 µM in each case.
`Cn1cc2cc(NC(=O)c3c(F)cc(N4CCC(NC5CC5)CC4)c4cn(C)nc34)c(Cl)cc2n1` [Compound 439, N-(6-chloro-2-methyl-indazol-5-yl)-4-[4-(cyclopropylamino)-1-piperidyl]-6-fluoro-2-methyl-indazole-7-carboxamide]: the GI50 in experiment [1] was more than 10 µM. The IC50 in experiment [2], in experiment [3], in experiment [4] and in experiment [5] was more than 10 µM each time. The AC50 in experiment [4] and in experiment [5] was more than 10 µM throughout.
For `COc1cc2nc(C)cn2cc1NC(=O)c1cnc(N2CCC(NC3CC3)CC2)c2cn(C)nc12` [Compound 440, 4-[4-(cyclopropylamino)-1-piperidyl]-N-(7-methoxy-2-methyl-imidazo[1,2-a]-pyridin-6-yl)-2-methyl-pyrazolo[4,3-c]-pyridine-7-carboxamide], in experiment [1], the concentration for 50% growth inhibition (GI50) is 0.1 to 1 µM. The concentration for half-maximal inhibition (IC50) in experiment [2] is 0.1 to 1 µM; in experiment [3], 1 to 10 µM; in experiment [4], 0.1 to 1 µM; in experiment [5], 1 to 10 µM. Besides, the concentration at half-maximal activity (AC50) in experiment [4] is less than 0.1 µM; in experiment [5] it was 1 to 10 µM.
With `COc1cc2nn(C)cc2cc1NC(=O)c1c(NCCO)cc(N2CCC(NC3CC3)CC2)c2cn(C)nc12` [Compound 441, 4-[4-(cyclopropylamino)-1-piperidyl]-6-(2-hydroxyethylamino)-N-(6-methoxy-2-methyl-indazol-5-yl)-2-methyl-indazole-7-carboxamide], the GI50 in experiment [1] lay within 1 to 10 µM. The half-maximal inhibitory concentration (IC50) in experiment [2], in experiment [3], in experiment [4] and in experiment [5] was 1 to 10 µM throughout. Moreover, the concentration at half-maximal activity (AC50) in experiment [4] and in experiment [5] was 1 to 10 µM each time.
Turning to `COCCNc1cc(N2CCC(NC3CC3)CC2)c2cn(C)nc2c1C(=O)Nc1cc2cn(C)nc2cc1OC` [Compound 442, 4-[4-(cyclopropylamino)-1-piperidyl]-6-(2-methoxyethylamino)-N-(6-methoxy-2-methyl-indazol-5-yl)-2-methyl-indazole-7-carboxamide], the 50% growth inhibitory concentration (GI50) in experiment [1] was 1 to 10 µM. The IC50 in experiment [2], in experiment [3], in experiment [4] and in experiment [5] was more than 10 µM in each case. The AC50 in experiment [4] and in experiment [5] was more than 10 µM throughout.
On to `COc1cc2nn(C)cc2cc1NC(=O)c1ccc(N2CCC(NC3CC3)CC2)c2cc(CO)nn12` [Compound 443, 4-(4-(cyclopropylamino)piperidin-1-yl)-2-(hydroxymethyl)-N-(6-methoxy-2-methyl-2H-indazol-5-yl)pyrazolo[1,5-a]pyridine-7-carboxamide 2,2,2-trifluoroacetate], for which the concentration for 50% growth inhibition (GI50) in experiment [1] was in the range of 0.1 to 1 µM. Besides, the half-maximal inhibitory concentration (IC50) in experiment [2], in experiment [3], in experiment [4] and in experiment [5] was 0.1 to 1 µM in each case. The half-maximal activity concentration (AC50) in experiment [4] was less than 0.1 µM; in experiment [5] it was 0.1 to 1 µM.
Turning to `COc1cc2nn(C)cc2cc1NC(=O)c1ccc(N2CCC(NC3CC3)CC2)c2cn(C)nc12` [Compound 444, 4-[4-(cyclopropylamino)-1-piperidyl]-N-(6-methoxy-2-methyl-indazol-5-yl)-2-methyl-indazole-7-carbox-amide], the 50% growth inhibitory concentration (GI50) in experiment [1] is 0.1 to 1 µM. Besides, the concentration for half-maximal inhibition (IC50) lay in the range of 0.1 to 1 µM in experiment [2], 1 to 10 µM in experiment [3], 0.1 to 1 µM in experiment [4] and 1 to 10 µM in experiment [5]. Moreover, the AC50 in experiment [4] is less than 0.1 µM; in experiment [5] it was 1 to 10 µM.
With `COc1cc2nn(C)cc2c(Cl)c1NC(=O)c1c(F)cc(N2CCC(NC3CC3)CC2)c2cn(C)nc12` [Compound 445, N-(4-chloro-6-methoxy-2-methyl-indazol-5-yl)-4-[4-(cyclopropylamino)-1-piperidyl]-6-fluoro-2-methyl-indazole-7-carboxamide 2,2,2-trifluoroacetate], the GI50 in experiment [1] was more than 10 µM. Moreover, the concentration for half-maximal inhibition (IC50) in experiment [2], in experiment [3], in experiment [4] and in experiment [5] was more than 10 µM in each case. Further, the AC50 in experiment [4] and in experiment [5] was more than 10 µM throughout.
As for `COc1cc2nn(C)cc2cc1C#Cc1c(F)cc(N2CCC(NC3CC3)CC2)c2cn(C)nc12` [Compound 446, N-cyclo-propyl-1-[6-fluoro-7-[2-(6-methoxy-2-methyl-indazol-5-yl)-ethynyl]-2-methyl-indazol-4-yl]-piperidin-4-amine], the concentration for 50% growth inhibition (GI50) in experiment [1] fell in the range of 1 to 10 µM. In addition, the IC50 in experiment [2], in experiment [3], in experiment [4] and in experiment [5] was 1 to 10 µM throughout. In addition, the AC50 in experiment [4] and in experiment [5] was more than 10 µM in each case.
Regarding `COc1c(NC(=O)c2c(F)cc(N3CCC(NC4CC4)CC3)c3cn(C)nc23)ccn2nc(C)cc12` [Compound 447, 4-(4-(cyclopropylamino)piperidin-1-yl)-6-fluoro-N-(4-methoxy-2-methylpyrazolo-[1,5-a]pyridin-5-yl)-2-methyl-2H-indazole-7-carboxamide 2,2,2-trifluoroacetate], the GI50 in experiment [1] lay in the range of 1 to 10 µM. For the same compound, the IC50 in experiment [2] was 1 to 10 µM; in experiment [3], more than 10 µM; in experiment [4], 1 to 10 µM; in experiment [5], more than 10 µM. Besides, the half-maximal activity concentration (AC50) in experiment [4] and in experiment [5] was more than 10 µM each time.
For `COc1cc2n[nH]cc2cc1NC(=O)c1c(F)cc(N2CCC(NC3CC3)CC2)c2cn(C)nc12` [Compound 449, 4-[4-(cyclopropylamino)-1-piperidyl]-6-fluoro-N-(6-methoxy-2H-indazol-5-yl)-2-methyl-indazole-7-carboxamide], the GI50 in experiment [1] is more than 10 µM. Moreover, the half-maximal inhibitory concentration (IC50) in experiment [2], in experiment [3], in experiment [4] and in experiment [5] was more than 10 µM each time. Further, the AC50 in experiment [4] and in experiment [5] was more than 10 µM each time.
As to `COc1cc2nn(C)cc2cc1NC(=O)c1c(N)cc(N2CCC(NC3CC3)CC2)c2cn(C)nc12` [Compound 450, 6-amino-4-[4-(cyclopropylamino)-1-piperidyl]-N-(6-methoxy-2-methyl-indazol-5-yl)-2-methyl-indazole-7-carboxamide], the 50% growth inhibitory concentration (GI50) in experiment [1] lay within 1 to 10 µM. Further, the 50% inhibitory concentration (IC50) in experiment [2], in experiment [3], in experiment [4] and in experiment [5] was more than 10 µM each time. The AC50 in experiment [4] and in experiment [5] was more than 10 µM throughout.
